Activity calls are given as the source filed them.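 Rule for the calls: active = compounds whose fitted half-maximal concentration in the cell-protection dose series is at or below a set limit; inactive = the rest.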
test system: H9c2 cardiomyocytes, 2-deoxyglucose stress, ATP luminescence, 2 h; assay: protection of cardiomyocytes from 2-deoxyglucose injury, dose response, cell-based, 2-deoxyglucose stress, uHTS hits (AID 588780)

| SMILES | IC50 |
| --- | --- |
| CCCCCCn1cnc2c(c1=O)c1nc3ccccc3nc1n2/N=C/c1ccco1 | > 79 µM (inactive) |
| CSc1nc2ncc3c(n2n1)CC1c2ccccc2CCN1C3=O (stereo not given) | > 79 µM (inactive) |
| COc1ccc(N(CC(=O)NCCSc2ccccc2)S(=O)(=O)c2ccccc2)c(OC)c1 | 12.3 µM |
| CNC(=O)c1ccc(-c2sc3nc(N4CCOCC4)c4c(c3c2N)CC(C)(C)OC4)o1 | 13.2 µM |
| O=C(Cn1[nH]c(=O)c2ccccc2c1=O)OCC(=O)N(Cc1ccccc1)Cc1ccccc1 | > 79 µM (inactive) |
| CCOC(=O)Cc1csc(NC(=O)NC2(C(F)(F)F)Oc3ccc(Cl)cc3O2)n1 (stereo not given) | > 79 µM (inactive) |
| CSCC[C@H](NC(=O)OC(C)(C)C)C(=O)N/N=C/c1cccc2cccnc12 | 30.9 µM (inactive) |
| COc1ccc(-c2cc(C(=O)N3CCN(c4ccccc4)CC3)c3ccccc3n2)cc1OC | > 79 µM (inactive) |
| O=C(Cc1n[nH]c(=O)c2ccccc12)NCc1ccccn1 | > 79 µM (inactive) |
| Cn1c(=O)n(CCc2ccccc2)c(=O)c2c1nc1n2CCCN1Cc1ccccc1 | 14.1 µM |
| Cc1cccc(N=Cc2cc(Br)cc(Cl)c2O)c1 | 39.6 µM (inactive) |
| COc1cc2ccnc(C=O)c2cc1OC | > 79 µM (inactive) |
| CS(=O)(=O)Nc1cccc(NC(=O)c2cccc3c(-c4cccc(C(N)=O)c4)coc23)c1 | > 79 µM (inactive) |
| CCOc1ccc2ccccc2c1C(=O)N[C@@H]1C(=O)N2[C@@H]1SC(C)(C)[C@@H]2C(=O)O | 47.1 µM (inactive) |
| COC(=O)c1cc(Cl)c(NC(=O)/C=C/c2ccc(OC)c(OC)c2)cc1OC | > 79 µM (inactive) |
| Cc1cccc(NC(=O)COc2cccc3c2CCNC3=O)c1 | > 79 µM (inactive) |
| COCCCn1c(N)c(C(=O)Nc2sc3c(c2C(=O)OC)CCCC3)c2nc3ccccc3nc21 | 34 µM (inactive) |
| CCNC(=O)/C(C#N)=C/c1c(N(Cc2ccccc2)Cc2ccccc2)nc2ccccn2c1=O | 24.6 µM |
| Cc1cc(C)cc(NC(=O)CSc2ccc(-c3ccccn3)nn2)c1 | > 79 µM (inactive) |
| COc1cc(-c2cc(NC=O)c3ncc(-c4ccccc4)n3c2)cc(OC)c1OC | > 79 µM (inactive) |
| CC(C)OCCCNC(=O)CCC(=O)NNc1nc2ccccc2c2nc(-c3ccccc3)nn12 | > 79 µM (inactive) |
| CCc1nnc(NC(=O)CCC(=O)N2CCN(C3c4ccccc4-c4ccccc43)CC2)s1 | > 79 µM (inactive) |
| N#CC(c1nc2ccccc2nc1N1CCCC1)S(=O)(=O)c1cccs1 (stereo not given) | 34.1 µM (inactive) |
| O=C1NC(Cc2ccc(O)cc2)c2nc3ccc(F)cc3c(=O)n2-c2cc3ccccc3cc21 (stereo not given) | 12.4 µM |

| SMILES | IC50 |
| --- | --- |
| Cc1ccc(C)c(S(=O)(=O)N2CCN(C(=O)Cn3[nH]c(=O)c4ccccc4c3=O)CC2)c1 | > 79 µM (inactive) |
| Cc1ccc(C(c2c(C)n(C)n(-c3ccccc3)c2=O)c2c(C)n(C)n(-c3ccccc3)c2=O)s1 | > 79 µM (inactive) |
| O=S(=O)(c1ccccc1)N1CCN(c2nc(-c3cccnc3)nc3ccccc23)CC1 | 12.4 µM |
| CCCc1cc(N2CCN(C(=O)c3ccco3)CC2)n2c(nc3ccccc32)c1C#N | 21.4 µM |
| COc1cccc(OC)c1C(=O)Nc1cc(C)nn1-c1nc2ccccc2[nH]1 | > 79 µM (inactive) |
| CCCNC(=O)c1c(N)n(-c2cccc(OC)c2)c2nc3ccccc3nc12 | > 79 µM (inactive) |
| Cc1cc(C)c(C)c(S(=O)(=O)N2CCN(C(=O)CCc3nc4ccccc4c(=O)[nH]3)CC2)c1C | > 79 µM (inactive) |
| CN(CC(=O)Nc1ccccc1Br)C(=O)CCc1nc2ccccc2c(=O)[nH]1 | > 79 µM (inactive) |
| O=C(Nc1nnc(-c2ccc3c(c2)CCCC3)o1)c1ccccc1 | 23.3 µM |
| O=C(c1cc(=O)[nH]c2ccccc12)N1CCN(S(=O)(=O)c2ccc3ccccc3c2)CC1 | 14.5 µM |
| CC(=O)Nc1cc(-c2ccc(C(=O)NC3CC3)cc2)cn2c(-c3cccc(C(C)=O)c3)cnc12 | > 79 µM (inactive) |
| COc1cc(-c2cc3nc(NCCc4ccc(S(N)(=O)=O)cc4)ccn3n2)cc(OC)c1OC | 15.8 µM |
| CC(=NCCCn1ccnc1)c1c(-c2ccccc2)[nH]n(-c2nc3ccccc3s2)c1=O | > 79 µM (inactive) |
| CC(OC(=O)Cc1n[nH]c(=O)c2ccccc12)C(=O)Nc1ccc(Cl)cn1 (stereo not given) | > 79 µM (inactive) |
| CC(OC(=O)CCc1nc2ccccc2c(=O)[nH]1)C(=O)Nc1ccc2c(c1)OCO2 (stereo not given) | > 79 µM (inactive) |
| O=C(CNC(=O)c1nc[nH]c1C(=O)NCc1ccccc1)OCc1ccccc1 | > 79 µM (inactive) |
| CCCCc1cc(=O)oc2cc(O)ccc12 | > 79 µM (inactive) |
| Brc1ccc(-c2nn3c(-c4ccco4)nnc3s2)o1 | 20 µM |
| CCn1c(/C=N/NC(=O)c2ccc(OC)cc2)nc2ccccc21 | > 79 µM (inactive) |
| COCCOC(=O)N/C=C\c1nc2ccccc2c(=O)[nH]1 | 26.7 µM |
| CCOC(=O)c1nc(Nc2ccc(C(C)=O)cc2)c2ccccc2n1 | 18.9 µM |
| Cc1[nH]c2ccccc2c1/C=N/NC(=O)c1cccs1 | 40.2 µM (inactive) |
| CCOc1ccc(-n2c(C)c(C(C)=O)c3cc(OC(C)=O)ccc32)cc1 | > 79 µM (inactive) |
| O=c1[nH]c2c(c3c1CCCC3)CCCC2 | > 79 µM (inactive) |

| SMILES | IC50 |
| --- | --- |
| COc1cc(NC(=O)c2cc3c(C)nc4ccccc4c3o2)cc(OC)c1OC | > 79 µM (inactive) |
| CN(CC(=O)Nc1cccc(F)c1)C(=O)CCCc1nc2ccccc2c(=O)[nH]1 | > 79 µM (inactive) |
| CCN1CCN(c2nc3c(c(=O)[nH]2)CCCC3)CC1 | > 79 µM (inactive) |
| O=C(COC(=O)CCc1nc2ccccc2c(=O)[nH]1)Nc1ccc2c(c1)OCO2 | > 79 µM (inactive) |
| CC1(NC(=O)CCc2nc3ccccc3c(=O)[nH]2)CCS(=O)(=O)C1 (stereo not given) | > 79 µM (inactive) |
| COC(=O)/C(=C(O)\C=C\c1ccccc1[N+](=O)[O-])c1nc2ccccc2[nH]1 | > 79 µM (inactive) |
| NC(=O)c1ccccc1N=Cc1ccccn1 | > 79 µM (inactive) |
| CCOC(=O)c1c(NC(=O)COC(=O)Cc2n[nH]c(=O)c3ccccc23)sc(C(=O)NC)c1C | > 79 µM (inactive) |
| COc1ccc(C(=O)Nc2cc(C)nn2-c2nc3ccccc3[nH]2)c(OC)c1 | 12.3 µM |
| COc1ccccc1CN(C(=O)CNC(=O)c1ccco1)C(C(=O)NCC1CCCO1)c1ccccc1 (stereo not given) | 11.6 µM |
| COc1cccc(/C=N/NC(=O)c2[nH]c(C)c(C(=O)N/N=C/c3cccc(OC)c3)c2C)c1 | 11.9 µM |
| COc1cc(C(=O)NNC(=O)c2ccc3ccccc3n2)cc(OC)c1OC | > 79 µM (inactive) |
| CCOC(=O)C1=C(COC(=O)c2cc(OC)c(OC)c(OC)c2)NC(=O)NC1C (stereo not given) | 50 µM (inactive) |
| CCCN1C(=O)/C(=C/c2nc3ccccc3c(=O)[nH]2)c2ccccc21 | 11.2 µM |
| CCc1nnc(NC(=O)CSc2nnc(CNc3ccc(OC)cc3)n2C)s1 | > 79 µM (inactive) |
| CC(=O)c1ccc(-c2cnc3c(NC=O)cc(-c4ccc(C(=O)NC5CC5)cc4)cn23)cc1 | > 79 µM (inactive) |
| CCCCc1nc2sc3c(c2c(=O)[nH]1)CCC3 | > 79 µM (inactive) |
| Oc1c(Br)cc(Br)cc1C=NCc1ccccc1 | > 79 µM (inactive) |
| CNc1ccccc(C(=O)/C=C/c2ccccc2OC)c1=O | > 79 µM (inactive) |
| CC(OC(=O)Cc1n[nH]c(=O)c2ccccc12)C(=O)Nc1ccc(F)cc1Cl (stereo not given) | > 79 µM (inactive) |
| CCc1ccc(NC(=O)CSc2ccc(-c3ccccn3)nn2)cc1 | > 79 µM (inactive) |
| O=C(Cn1[nH]c(=O)c2ccccc2c1=O)NCC1COc2ccccc2O1 (stereo not given) | > 79 µM (inactive) |
| COc1ccccc1OCC(=O)Nc1cccc(-c2nnc(-c3ccco3)o2)c1 | > 79 µM (inactive) |
| CC(=O)Oc1ccc2c(C)cc(=O)oc2c1 | > 79 µM (inactive) |

| SMILES | IC50 |
| --- | --- |
| COc1cc(/C=c2\s/c(=C(/C#N)C(=O)N3CCCC3)n(-c3ccccc3)c2=O)ccc1O | 25 µM |
| Cc1cccc(C(=O)N/N=C2\CS(=O)(=O)N(C)c3ccsc32)c1 | 6.21 µM |
| CC(=O)c1cccc(-c2cnc3c(NC=O)cc(-c4cccc(C(=O)N(C)C)c4)cn23)c1 | 19.5 µM |
| CC(Oc1cccc(Cl)c1)C(=O)Nc1nc(-c2ccccn2)cs1 (stereo not given) | 44.4 µM (inactive) |
| O=C(COC(=O)c1ccc([N+](=O)[O-])o1)Nc1ccc(N2CCOCC2)cc1 | > 79 µM (inactive) |
| CCOC(=O)CNC(=O)CSc1nc2nc(C)c(Br)cc2[nH]1 | > 79 µM (inactive) |
| CCOc1cc(/C=N/NC(N)=O)cc(Br)c1OCC(=O)Nc1cccc2ccccc12 | > 79 µM (inactive) |
| COc1ccc([N+](=O)[O-])cc1NC(=O)C(C)OC(=O)Cn1[nH]c(=O)c2ccccc2c1=O (stereo not given) | 40 µM (inactive) |
| COc1cc(NC(=O)c2ccco2)c(C(=O)OCC(=O)c2c[nH]c3ccccc23)cc1OC | 7.59 µM |
| COCCn1cnc2c(c1=O)c1nc3ccccc3nc1n2/N=C/c1cccc(OC)c1 | 38 µM (inactive) |
| COC(=O)c1cc(NC(=O)Nc2cc(OC)ccc2OC)cc(C(=O)OC)c1 | 38.4 µM (inactive) |
| CCCN(CC(=O)Nc1ccccc1C)C(=O)Cc1n[nH]c(=O)c2ccccc12 | > 79 µM (inactive) |
| O=[N+]([O-])c1ccc(-c2nc(Nc3ccc(O)cc3)c3ccccc3n2)cc1 | > 79 µM (inactive) |
| N#CCCN(C(=O)COC(=O)CCc1nc2ccccc2c(=O)[nH]1)c1ccccc1F | > 79 µM (inactive) |
| COc1cccc(-c2cc3nc(C)c(C)c(N4CCN(C(=O)c5ccoc5)CC4)n3n2)c1 | > 79 µM (inactive) |
| O=C(CCc1nc2ccccc2c(=O)[nH]1)NNC(=O)c1ccccc1Cl | > 79 µM (inactive) |
| CC(C)(C)OC(=O)CNC(=O)c1[nH]cnc1C(=O)Nc1ccc(CNC(=O)OC(C)(C)C)cc1 | > 79 µM (inactive) |
| O=c1[nH]ccc2c(O)cccc12 | > 79 µM (inactive) |
| COc1cccc(C(=O)CSc2nnc(-c3cc(OC)c(OC)c(OC)c3)o2)c1 | > 79 µM (inactive) |
| O=C(C[C@H]1C/C=C\CC[C@H](Cc2ccc(F)cc2)C(=O)O[C@H](c2ccccc2)CNC1=O)N[C@H](CO)Cc1ccccc1 | > 79 µM (inactive) |
| CC(OC(=O)Cn1[nH]c(=O)c2ccccc2c1=O)C(=O)Nc1ccc(F)cc1 (stereo not given) | > 79 µM (inactive) |
| O=c1[nH]nc(Cc2ccccc2)c2ccccc12 | > 79 µM (inactive) |
| O=CNc1cc(-c2ccc(C(=O)NC3CC3)cc2)cn2c(-c3ccc(F)c(Cl)c3)cnc12 | > 79 µM (inactive) |

From PubChem BioAssay AID588780 (Sanford-Burnham Center for Chemical Genomics, 2011)
